Laboratory results: patent US20240398823A1, “DUAL INHIBITOR OF HISTONE DEACETYLASE 6 AND HEAT SHOCK PROTEIN 90” (TAIPEI MEDICAL UNIVERSITY, priority 2021, published 2024)

Tests used:
HSP90β = biological target: T1, HSP90β (Homo sapiens, UniProt P08238); test: HSP90 inhibition assay, FITC-geldanamycin competition fluorescence polarization, HSP90β; type: binding; conditions: FITC-GM competition
T1 construct: Reaction Biology Corporation (ran the assay as a service)

HCT116 = test: MTT assay, survival of human colorectal cancer cells HCT116; type: cell-based; conditions: HCT-116, 48 h, mean ± SD, read-out: Human cell lines HCT116 IC50(μM ± SD)
Method: The effects on cell viability of the HSP90/HDAC6 dual inhibitors as described in Synthesis Examples (such as Compounds 63, 64, and 66 to 76) were evaluated. Cells were seeded in 96-well plates (5000 cells/well). The next day, the serially diluted drugs were added into the wells and incubated at 37° C. for 48 h. Cell viability was measured by the MTT assay and is expressed as percentages of surviving drug-treated cells relative to untreated control cells. The IC50 was calculated by non-linear regression analysis.
The inhibitory effect of the HSP90/HDAC6 dual inhibitors as described in Synthesis Examples on the survival rate of human colorectal cancer cells HCT116 is evaluated using MTT assay.

HDAC6 = biological target: T2, HDAC6 (Homo sapiens, UniProt Q9UBN7); test: HDAC enzymes inhibition assay (Reaction Biology), HDAC6; type: biochemical; conditions: 10-dose, 3-fold dilution from 10 μM, single experiment
T2 construct: Reaction Biology Corporation (ran the assay as a service)
T2 sequence (Q9UBN7 1-1215): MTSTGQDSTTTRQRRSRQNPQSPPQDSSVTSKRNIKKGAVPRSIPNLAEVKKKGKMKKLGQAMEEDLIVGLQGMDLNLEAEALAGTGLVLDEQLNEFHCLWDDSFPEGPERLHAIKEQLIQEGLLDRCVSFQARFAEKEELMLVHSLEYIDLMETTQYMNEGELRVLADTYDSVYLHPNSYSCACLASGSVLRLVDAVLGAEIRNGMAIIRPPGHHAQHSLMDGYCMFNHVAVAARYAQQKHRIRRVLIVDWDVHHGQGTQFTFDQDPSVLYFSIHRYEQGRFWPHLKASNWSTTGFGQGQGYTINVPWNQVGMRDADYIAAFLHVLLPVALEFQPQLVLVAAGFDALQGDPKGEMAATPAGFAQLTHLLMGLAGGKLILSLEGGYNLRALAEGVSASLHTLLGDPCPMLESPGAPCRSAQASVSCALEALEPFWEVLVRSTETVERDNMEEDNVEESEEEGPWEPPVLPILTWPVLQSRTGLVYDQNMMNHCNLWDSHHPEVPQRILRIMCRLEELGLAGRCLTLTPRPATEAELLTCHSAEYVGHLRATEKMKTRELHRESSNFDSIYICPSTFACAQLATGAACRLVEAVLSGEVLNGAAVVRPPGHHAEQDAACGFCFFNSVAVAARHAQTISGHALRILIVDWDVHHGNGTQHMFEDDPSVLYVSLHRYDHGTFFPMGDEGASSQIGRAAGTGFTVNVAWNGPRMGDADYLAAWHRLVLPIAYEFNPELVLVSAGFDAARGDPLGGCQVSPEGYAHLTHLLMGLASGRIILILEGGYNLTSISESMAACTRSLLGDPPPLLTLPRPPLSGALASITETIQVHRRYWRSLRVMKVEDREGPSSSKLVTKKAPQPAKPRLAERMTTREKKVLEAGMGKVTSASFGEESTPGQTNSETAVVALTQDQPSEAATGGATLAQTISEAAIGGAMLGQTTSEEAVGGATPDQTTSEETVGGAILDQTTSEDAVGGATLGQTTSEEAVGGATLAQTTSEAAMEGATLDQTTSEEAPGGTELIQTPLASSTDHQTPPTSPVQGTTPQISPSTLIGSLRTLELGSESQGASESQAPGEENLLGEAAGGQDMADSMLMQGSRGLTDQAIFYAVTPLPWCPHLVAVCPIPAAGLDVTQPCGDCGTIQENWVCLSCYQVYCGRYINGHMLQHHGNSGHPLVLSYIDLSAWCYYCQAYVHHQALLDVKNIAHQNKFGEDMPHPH

HDAC3 = biological target: T3, HDAC3 (Homo sapiens, UniProt O15379); test: HDAC enzymes inhibition assay (Reaction Biology), HDAC3; type: biochemical; conditions: 10-dose, 3-fold dilution from 10 μM, single experiment
T3 construct: Reaction Biology Corporation (ran the assay as a service)

HSP90α = biological target: T4, HSP90α (Homo sapiens, UniProt P07900); test: HSP90 inhibition assay, FITC-geldanamycin competition fluorescence polarization, HSP90α; type: binding; conditions: FITC-GM competition
T4 construct: Reaction Biology Corporation (ran the assay as a service)

HDAC1 = biological target: T5, HDAC1 (Homo sapiens, UniProt Q13547); test: HDAC enzymes inhibition assay (Reaction Biology), HDAC1; type: biochemical; conditions: 10-dose, 3-fold dilution from 10 μM, single experiment
T5 construct: Reaction Biology Corporation (ran the assay as a service)
T5 sequence (Q13547 whole entry): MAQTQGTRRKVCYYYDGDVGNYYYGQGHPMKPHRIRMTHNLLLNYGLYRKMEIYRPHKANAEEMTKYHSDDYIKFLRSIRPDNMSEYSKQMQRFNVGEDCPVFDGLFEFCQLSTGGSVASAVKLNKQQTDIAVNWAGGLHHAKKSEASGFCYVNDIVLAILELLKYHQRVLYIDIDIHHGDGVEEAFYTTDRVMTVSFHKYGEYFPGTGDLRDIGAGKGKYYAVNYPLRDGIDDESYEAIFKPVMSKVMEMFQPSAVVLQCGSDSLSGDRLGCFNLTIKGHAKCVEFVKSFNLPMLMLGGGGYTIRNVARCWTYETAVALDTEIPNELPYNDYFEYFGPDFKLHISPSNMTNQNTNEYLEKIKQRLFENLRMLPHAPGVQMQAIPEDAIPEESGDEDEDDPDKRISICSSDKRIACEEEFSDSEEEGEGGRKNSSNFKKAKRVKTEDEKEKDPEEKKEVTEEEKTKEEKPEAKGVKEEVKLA

T1 sequence (P08238 whole entry): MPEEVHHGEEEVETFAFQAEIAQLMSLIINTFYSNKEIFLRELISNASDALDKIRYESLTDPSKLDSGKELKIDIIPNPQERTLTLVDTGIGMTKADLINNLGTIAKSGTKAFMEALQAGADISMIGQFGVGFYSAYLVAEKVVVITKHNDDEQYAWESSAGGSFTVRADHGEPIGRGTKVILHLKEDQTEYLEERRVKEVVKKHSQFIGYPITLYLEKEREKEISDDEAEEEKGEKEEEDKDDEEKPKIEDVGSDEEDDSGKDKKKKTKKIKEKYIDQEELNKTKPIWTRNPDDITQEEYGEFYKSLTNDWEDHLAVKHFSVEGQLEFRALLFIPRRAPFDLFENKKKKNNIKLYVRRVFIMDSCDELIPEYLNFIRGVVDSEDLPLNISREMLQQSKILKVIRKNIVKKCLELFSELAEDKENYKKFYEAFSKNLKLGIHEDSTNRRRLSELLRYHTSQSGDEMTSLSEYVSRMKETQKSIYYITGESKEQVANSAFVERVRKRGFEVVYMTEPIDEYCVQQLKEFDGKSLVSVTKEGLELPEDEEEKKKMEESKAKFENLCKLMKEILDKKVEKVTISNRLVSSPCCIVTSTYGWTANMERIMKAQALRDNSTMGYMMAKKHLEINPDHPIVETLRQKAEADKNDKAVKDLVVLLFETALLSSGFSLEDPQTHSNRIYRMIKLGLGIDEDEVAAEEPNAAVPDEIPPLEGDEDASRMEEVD
T3 sequence (O15379 whole entry): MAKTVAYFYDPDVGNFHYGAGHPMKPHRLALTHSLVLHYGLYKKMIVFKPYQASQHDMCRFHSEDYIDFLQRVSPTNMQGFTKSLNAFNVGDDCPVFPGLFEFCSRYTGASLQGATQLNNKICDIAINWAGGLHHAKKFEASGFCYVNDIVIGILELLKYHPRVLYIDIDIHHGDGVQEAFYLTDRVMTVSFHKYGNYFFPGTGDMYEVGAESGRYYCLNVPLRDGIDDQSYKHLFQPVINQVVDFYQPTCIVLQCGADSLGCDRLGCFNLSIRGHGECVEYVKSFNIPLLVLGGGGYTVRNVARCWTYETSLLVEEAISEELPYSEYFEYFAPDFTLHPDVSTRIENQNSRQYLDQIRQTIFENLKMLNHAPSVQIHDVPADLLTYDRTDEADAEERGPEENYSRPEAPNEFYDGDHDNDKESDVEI
T3 sequence (Q9Y618 395-489 partner limits assumed): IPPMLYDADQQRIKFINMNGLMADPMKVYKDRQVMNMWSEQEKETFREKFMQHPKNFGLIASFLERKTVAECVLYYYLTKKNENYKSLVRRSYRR

IC50 (HSP90β) [nM]	IC50 (HDAC6) [nM]	IC50 (HDAC3) [nM]	IC50 (HSP90α) [nM]	IC50 (HDAC1) [nM]	SMILES	IC50 (HCT116) [µM]
38.8	5.93	3620	25.2	1760	CC(C)c1cc(C(=O)N(C)Cc2ccc(C(=O)NO)cc2)c(O)cc1O [Compound 63, 2,4-dihydroxy-N-(4-(hydroxycarbamoyl)benzyl)-5-isopropyl-N-methylbenzamide]	1.09 ± 0.08
190	23	> 10000	93.9	5230	CCN(Cc1ccc(C(=O)NO)cc1)C(=O)c1cc(C(C)C)c(O)cc1O [Compound 64, N-ethyl-2,4-dihydroxy-N-(4-(hydroxycarbamoyl)benzyl)-5-isopropylbenzamide]	3.69 ± 0.09
200	23.9	4740	54.5	3680	CC(C)c1cc(C(=O)N(Cc2ccc(C(=O)NO)cc2)c2ccccc2)c(O)cc1O [Compound 66, 2,4-dihydroxy-N-(4-(hydroxycarbamoyl)benzyl)-5-isopropyl-N-phenylbenzamide]	0.9 ± 0.09
103	22.9	3140	40.8	1690	CC(C)c1cc(C(=O)N(Cc2ccc(C(=O)NO)cc2)c2ccc(F)cc2)c(O)cc1O [Compound 67, N-(4-fluorophenyl)-2,4-dihydroxy-N-(4-(hydroxycarbamoyl)benzyl)-5-isopropylbenzamide]	4.61 ± 0.11
159	17.2	3030	59.9	1810	CC(C)c1cc(C(=O)N(Cc2ccc(C(=O)NO)cc2)c2ccc(Cl)cc2)c(O)cc1O [Compound 68, N-(4-chlorophenyl)-2,4-dihydroxy-N-(4-(hydroxycarbamoyl)benzyl)-5-isopropylbenzamide]	5.28 ± 0.92
272	9.17	2170	91.4	1290	CC(C)c1cc(C(=O)N(Cc2ccc(C(=O)NO)cc2)c2ccc(I)cc2)c(O)cc1O [Compound 69, 2,4-dihydroxy-N-(4-(hydroxycarbamoyl)benzyl)-N-(4-iodophenyl)-5-isopropylbenzamide]	1.16 ± 0.01
95.6	12.9	2200	39.9	1120	CC(C)c1cc(C(=O)N(Cc2ccc(C(=O)NO)cc2)c2ccc3c(c2)OCO3)c(O)cc1O [Compound 70, N-(benzo[d][1,3]dioxol-5-yl)-2,4-dihydroxy-N-(4-(hydroxycarbamoyl)benzyl)-5-isopropylbenzamide]	0.25 ± 0.04
18.7	16	691	16.3	275	CC(C)c1cc(C(=O)N(Cc2ccc(C(=O)NO)cc2)c2ccc(N3CCOCC3)cc2)c(O)cc1O [Compound 71, 2,4-dihydroxy-N-(4-(hydroxycarbamoyl)benzyl)-5-isopropyl-N-(4-morpholinophenyl)benzamide]	0.47 ± 0.02
117	13.7	2190	32.2	1070	CC(C)c1cc(C(=O)N(Cc2ccc(C(=O)NO)cc2)c2ccc(N(C)C)cc2)c(O)cc1O [Compound 72, N-(4-(dimethylamino)phenyl)-2,4-dihydroxy-N-(4-(hydroxycarbamoyl)benzyl)-5-isopropylbenzamide]	0.9 ± 0.18
60.5	5.88	645	36.7	173	CC(C)c1cc(C(=O)N(Cc2ccc(C(=O)NO)cc2)c2ccc(N3CCN(C)CC3)cc2)c(O)cc1O [Compound 73, 2,4-dihydroxy-N-(4-(hydroxycarbamoyl)benzyl)-5-isopropyl-N-(4-(4-methylpiperazin-1-yl)phenyl)benzamide]	1.25 ± 0.13
373	70.5	2700	98.7	1230	CC(C)c1cc(C(=O)N(Cc2ccc(C(=O)NO)cc2)c2ccc(N3CCCCC3)cc2)c(O)cc1O [Compound 74, 2,4-dihydroxy-N-(4-(hydroxycarbamoyl)benzyl)-5-isopropyl-N-(4-(piperidin-1-yl)phenyl)benzamide]	4.83 ± 0.47
51.8	6.54	2840	35	961	CC(C)c1cc(C(=O)N(Cc2ccc(C(=O)NO)cc2)c2ccc(O)cc2)c(O)cc1O [Compound 76, 2,4-Dihydroxy-N-(4-hydroxycarbamoyl-benzyl)-N-(4-hydroxy-phenyl)-5-isopropyl-benzamide]	0.83 ± 0.01
